How the values were obtained:
[1] = target: T1, 5-HT1A (Homo sapiens, UniProt P08908); assay: 5-HT1 Functional Assay (cAMP) in CHO/5-HT1A cells; format: cell-based; parameters: expressed in transfected cells; host or cells: CHO/5-HT1A cells
T1 sequence (P08908 1-422): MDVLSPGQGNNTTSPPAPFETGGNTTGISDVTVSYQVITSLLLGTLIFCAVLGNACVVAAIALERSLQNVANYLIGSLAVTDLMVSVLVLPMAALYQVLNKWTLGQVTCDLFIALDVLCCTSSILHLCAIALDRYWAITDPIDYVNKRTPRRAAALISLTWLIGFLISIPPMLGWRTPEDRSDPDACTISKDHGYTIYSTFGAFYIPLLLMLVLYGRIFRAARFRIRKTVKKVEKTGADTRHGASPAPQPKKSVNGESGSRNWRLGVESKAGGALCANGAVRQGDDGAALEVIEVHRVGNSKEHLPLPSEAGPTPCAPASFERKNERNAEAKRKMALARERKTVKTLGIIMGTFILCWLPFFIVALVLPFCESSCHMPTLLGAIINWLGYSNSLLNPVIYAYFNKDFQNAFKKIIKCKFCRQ
Description: 5-HT1 Functional Assay (cAMP)
CHO/5-HT1A cells were random seeded at a density of about 200,000/well in 24 well plates the day prior to the experiment. On the day of the experiment, cells were pretreated for 15 minutes at 37° C. with 500 μM isobutylmethylxantine (IBMX) dissolved in culture medium without serum. Wells were then divided in different groups in duplicate as follows: control, 10 μM FSK, 10 μM FSK+1 μM 5-HT as positive standard and 10 μM FSK+10 μM of the different compound under evaluation. Sample solutions were added and incubated for additional 15 minutes at 37° C. After incubation, the medium was aspirated and the reaction stopped by adding 200 μl of lysis buffer. Plates were shaken for 5 minutes, then the lysate was removed and samples were stored at 4° C. until the day of the assay. For the cAMP evaluation, samples were properly diluted and the cAMP content was measured by an enzyme immunoassay system.

[2] = target: 5-HT2A (Mus musculus, UniProt P35363); assay: 5-HT2 Functional Assay (PI Turnover) in cerebral cortex miniprisms; format: biochemical; settings: 10 μM compound, inhibition of PI turnover accumulation induced by 100 μM 5-HT
Description: 5-H T2 Functional Assay (PI Turnover)
Cross-chopped miniprisms (350×350 μm) were prepared from mouse whole cerebral cortices and incubated for 60 minutes at 37° C. in Krebs-Henseleit buffer containing 2 g/l glucose.
Cerebral cortex miniprisms were distributed in vials and incubated for 30 minutes with approximately 170 nM [^3H]-myoinositol (10-20 Ci/mmol) and […] lithium chloride. Samples were divided in different groups in triplicate: control, 100 μM 5-HT, 10 and 30 μM flibanserin+100 μM 5-HT, as standards, and 10 μM of the different compound under investigation+100 μM 5-HT. When 5-HT was added the incubation continued for 45 minutes. Compounds under investigation and flibanserin were added 10 minutes before dispensing 5-HT. Incubation was terminated by the addition of 940 μl chloroform-methanol (1:2 v/v). Further aliquots of chloroform (310 μl) and water (310 μl) were added and labeled inositol phosphates (1 Ps) were extracted from the aqueous phase by ion exchange chromatography using Dowex resin in the formate form. After addition of 10 ml of PicoFluor 40 scintillation cocktail (Packard), the radioactivity present in an aliquot (400 μl) of the aqueous extract was counted by liquid scintillation spectrometry.

[3] = target: T2, 5-HT2A (Rattus norvegicus, UniProt P14842); assay: 5-HT2A Radioligand Receptor Binding Assay ([3H]-Ketanserin, cerebral frontal cortex membranes); settings: 0.5 nM [3H]-Ketanserin
T2 construct: Cerebral frontal cortex was homogenized in 10 volumes of ice cold 0.32 M sucrose; from tissue; host or cells: rat cerebral frontal cortex membranes
Description: 5-HT2A Radioligand Receptor Binding Assay
Rats (male Sprague-Dawley, 200-250 g) were used. Cerebral frontal cortex was homogenized in 10 volumes of ice cold 0.32 M sucrose in 5 mM Tris-HCl ([…]) buffer. After centrifugation of the homogenate (1,000×g for 10 minutes) the supernatant was then recentrifuged at 48,000×g for 15 minutes. The resulting pellet was gently homogenized in an equal volume of 50 mM Tris-HCl buffer (pH 7.4) and incubated at 37° C. for 10 minutes. Membranes were then collected by centrifugation as above described and finally resuspended in 10 volumes of 50 mM Tris-HCl buffer (pH 7.4).
For displacement experiments membranes (980 μl) were diluted in 50 mM Tris-HCl buffer (pH 7.4) to a final concentration of 1:100 (w/v); the tissue suspension was then incubated at 37° C. for 10 minutes in a final volume of 1 ml in the presence of 0.5 nM [^3H]-Ketanserin. Non-specific binding was determined by incubating similar samples with unlabelled methysergide (100 μM). After incubation, samples prepared in a 24 wells cell culture cluster (Costar) were rapidly filtered by Inotech Cell Harvester (IH 201 filters). The filters were washed three times with 2 ml ice-cold Tris-HCl buffer and placed in polyethylene vials, then 4 ml of Filter Count scintillation cocktail (Packard) were added. The radioactivity present was counted by liquid scintillation spectrometry.
The affinity values (IC50) for the compounds were obtained by a nonlinear least squares regression analysis on the basis of a one binding site model.

5-HT2A (Mus musculus, UniProt P35363), sequence (P35363 whole entry, looked up): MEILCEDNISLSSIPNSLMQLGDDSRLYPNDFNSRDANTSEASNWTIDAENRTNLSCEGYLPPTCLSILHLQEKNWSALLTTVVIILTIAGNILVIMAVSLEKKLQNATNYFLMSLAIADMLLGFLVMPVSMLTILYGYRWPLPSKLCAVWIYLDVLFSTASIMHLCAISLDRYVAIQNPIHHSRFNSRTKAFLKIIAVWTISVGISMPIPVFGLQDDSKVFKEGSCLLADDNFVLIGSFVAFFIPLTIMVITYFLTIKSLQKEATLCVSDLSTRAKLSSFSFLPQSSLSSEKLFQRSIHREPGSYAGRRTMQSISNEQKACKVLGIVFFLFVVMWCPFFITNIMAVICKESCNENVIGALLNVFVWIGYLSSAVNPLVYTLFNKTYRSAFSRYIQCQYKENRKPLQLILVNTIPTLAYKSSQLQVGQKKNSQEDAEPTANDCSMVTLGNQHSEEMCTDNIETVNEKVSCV
T2 sequence (P14842 whole entry): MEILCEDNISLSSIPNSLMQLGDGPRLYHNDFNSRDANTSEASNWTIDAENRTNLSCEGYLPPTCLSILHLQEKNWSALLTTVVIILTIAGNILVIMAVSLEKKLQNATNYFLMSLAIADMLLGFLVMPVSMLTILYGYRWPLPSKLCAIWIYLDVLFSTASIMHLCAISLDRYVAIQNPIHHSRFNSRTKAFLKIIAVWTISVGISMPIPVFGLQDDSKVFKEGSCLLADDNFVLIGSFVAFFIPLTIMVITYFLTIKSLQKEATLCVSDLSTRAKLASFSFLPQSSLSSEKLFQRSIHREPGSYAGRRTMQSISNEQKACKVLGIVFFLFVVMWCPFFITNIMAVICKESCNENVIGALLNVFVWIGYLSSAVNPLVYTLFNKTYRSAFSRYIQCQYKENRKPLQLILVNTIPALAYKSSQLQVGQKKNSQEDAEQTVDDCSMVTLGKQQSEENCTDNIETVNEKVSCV

CCNC(=O)OCCn1c(=O)n(CCN2CCN(c3cccc(C)c3C)CC2)c2ccccc21 [Compound 215]
inhibition at 10 µM [1]: 83%
5-HT2A PI Turnover % inhibition [2]: 83%
IC50 [3]: 3.2 nM

From patent publication US6521623B1, “N,N'-disubstituted benzimidazolone derivatives with affinity at the serotonin and dopamine receptors” (Boehringer Ingelheim Pharma KG, priority 2000, dated 2003)
